From patent publication US11952375B2, “Crystalline forms of Mnk inhibitors” (eFFECTOR Therapeutics Inc., priority 2018, dated 2024)

Experiments:
[1] = Solubility noted during palladium scavenging work; type: physicochemical; conditions: qualitative; precluded use of common solid-supported palladium scavenging agents
[2] = Kinetic slurry study of the free base in various solvent systems; XRPD and equilibrium solubilities give relative polymorph stability; type: physicochemical; conditions: slurries in various solvent systems, temperatures and water amounts; solids isolated at 2, 4, 6, 24, 72 hours
Description: For example, the free base of (5) was slurried at ambient temperature in various solvent systems, at various temperatures, with varying amounts of water. In each solvent condition, solids were isolated for XRPD analysis at 2, 4, 6, 24, and 72 hours. Equilibrium solubilities in these solvents were then calculated and used to identify ethanol for the final slurry step. The difference in free energy between solid phases with the same composition (i.e., polymorphs, hydrates, or solvates) is directly proportional to their relative solubilities.

solubility [1]	thermodynamic stability of polymorph [2]	SMILES
Low	–	Cc1cc(Nc2cc(N)ncn2)c(=O)n2c1C(=O)NC21CCCCC1 [Compound 5, 6′-((6-aminopyrimidin-4-yl)amino)-8′-methyl-2′H-spiro[cyclohexane-1,3′-imidazo[1,5-a]pyridine]-1′,5′-dione]
–	most thermodynamically stable polymorph	Cc1cc(Nc2cc(N)ncn2)c(=O)n2c1C(=O)NC21CCCCC1 [Form A, 6′-((6-aminopyrimidin-4-yl)amino)-8′-methyl-2′H-spiro[cyclohexane-1,3′-imidazo[1,5-a]pyridine]-1′,5′-dione]
